Results as given in publication PMC4865847, “Putative histidine kinase inhibitors with antibacterial effect against multi-drug resistant clinical isolates identified by in vitro and in silico screens” (Scientific Reports, 2016).
Values after ≈ are worked out from the molar mass of the structure shown. Read-outs that look alike come from different tables or passages of the source.

Assays:
[1] = target: S. aureus PhoR (PhoR^S) (Staphylococcus aureus, UniProt Q2FXN7); experiment: In vitro autophosphorylation kinase assay with γ-32P-ATP, PhoR^S; assay type: biochemical; conditions: IC50 PhoR^S, autophosphorylation, one time point (30 sec), 10% DMSO
S. aureus PhoR (PhoR^S), sequence (Q2FXN7 entry or part of it): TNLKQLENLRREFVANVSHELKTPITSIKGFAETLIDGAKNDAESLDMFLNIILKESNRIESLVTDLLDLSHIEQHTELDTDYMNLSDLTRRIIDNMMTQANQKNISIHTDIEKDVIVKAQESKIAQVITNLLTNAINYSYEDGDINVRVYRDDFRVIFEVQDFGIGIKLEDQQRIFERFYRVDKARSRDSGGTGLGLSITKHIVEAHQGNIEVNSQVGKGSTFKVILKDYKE
Experimental: (§1) To evaluate the inhibitory capacity of selected hits from DSF, SBVS and LBSS in vitro autophosphorylation kinase assays with γ-^32P-ATP were performed as previously described. Ligands were dissolved in 100% DMSO. […] Controls lacking ligands contained an equal concentration of DMSO. Inhibition of autophosphorylation was determined by incubating 0.12 mg/ml (≈4 μM) HK and up to 20 mM fragment in kinase buffer (50 mM Tris HCl, pH 8.5, 50 mM KCl, 5 mM MgCl2, 0.5 mM EDTA and 0.1 mM DTT). Autophosporylation reactions were initiated by addition of 0.1 μCi/μl γ-^32P-ATP containing from 0.03 to 0.06 μM ATP (final concentrations). Autophosphorylation was quenched with 2xSDS-PAGE sample buffer supplemented with 50 mM EDTA. Samples were applied without heating to 15% (w/v) Tris-glycine SDS-polyacrylamide gels. After electrophoresis, the bottoms of the gels were removed to lower the background from the unincorporated radiolabeled ATP. Gels were dried without staining on a Bio-Rad Gel Air drying system and the phosphorylated protein was quantified by phosphor-imaging. Prism GraphPad was used for curve fitting and statistical analysis.

[2] = target: T1, E. coli PhoR (PhoR^E) (Escherichia coli, UniProt P08400); experiment: In vitro autophosphorylation kinase assay with γ-32P-ATP, PhoR^E; assay type: biochemical; conditions: for IC50: autophosphorylation, one time point (30 sec), 10% DMSO
T1 construct: The catalytic portion (DHp and CA domain) of E. coli PhoR (PhoR^E); made in house; host or cells: E. coli RIL
T1 sequence (P08400 210-425): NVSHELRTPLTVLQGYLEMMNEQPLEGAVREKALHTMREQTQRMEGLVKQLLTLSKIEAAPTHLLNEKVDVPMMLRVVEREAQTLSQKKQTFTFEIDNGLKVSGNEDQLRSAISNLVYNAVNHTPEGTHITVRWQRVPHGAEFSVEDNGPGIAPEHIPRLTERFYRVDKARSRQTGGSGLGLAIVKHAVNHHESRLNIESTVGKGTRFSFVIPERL
Experimental: as §1, with “Samples were applied without heating to 15% (w/v) Tris-glycine SDS-polyacrylamide gels.” left out

[3] = tested on: Staphylococcus aureus; experiment: Antibacterial susceptibility testing (MIC/MBC), S. aureus; assay type: cell-based; conditions: Staphylococcus aureus
Experimental: (§2) Minimal inhibitory concentrations (MICs) were determined following a standard double-dilution method. […] For S. pneumoniae MICs were determined by adapting the standard double-dilution method to anaerobic conditions and of this microorganism (use of Todd Hewitt Yeast extract with 200 U/mL of catalase and continuous monitoring of growth).

[4] = tested on: Staphylococcus epidermidis; experiment: Antibacterial susceptibility testing (MIC/MBC), S. epidermidis; assay type: cell-based; conditions: Staphylococcus epidermidis
Experimental: as §2

[5] = tested on: Escherichia coli; experiment: Antibacterial susceptibility testing (MIC/MBC), E. coli; assay type: cell-based; conditions: Escherichia coli, read-out: MIC E. coli CFT 073
Experimental: as §2

[6] = target: T2, S. pneumoniae WalK (Streptococcus pneumoniae, UniProt Q8DPL8); experiment: In vitro autophosphorylation kinase assay with γ-32P-ATP, WalK; assay type: biochemical; conditions: autophosphorylation, one time point (30 sec), 10% DMSO
T2 construct: WalK (amino acids from 208 to 449); N-terminal His6-3C site of vector pOPINF (own knowledge of the vector); made in house; host or cells: E. coli RIL
T2 sequence (Q8DPL8 208-449): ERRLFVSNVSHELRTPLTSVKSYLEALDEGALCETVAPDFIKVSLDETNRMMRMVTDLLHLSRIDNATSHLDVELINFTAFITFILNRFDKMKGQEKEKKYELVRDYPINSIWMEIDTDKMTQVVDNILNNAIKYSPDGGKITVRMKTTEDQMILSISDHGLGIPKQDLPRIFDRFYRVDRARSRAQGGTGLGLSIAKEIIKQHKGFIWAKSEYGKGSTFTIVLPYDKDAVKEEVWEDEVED
Experimental: as §1, with “Samples were applied without heating to 15% (w/v) Tris-glycine SDS-polyacrylamide gels.” left out

[7] = DSM20231, strain DSM 20231, read-out: MIC S. aureus DSM 20231
[8] = DSM20044, strain DSM 20044, read-out: MIC S. epidermidis DSM 20044

| Structure (SMILES) | IC50 [1] | IC50 ([2]; IC50 PhoR^E) | MIC [3, 7] | MIC [4, 8] | MIC ([5]; strain CFT 073) | IC50 ([6]; IC50 WalK) | also measured |
| --- | --- | --- | --- | --- | --- | --- | --- |
| CCN(Cc1ccc(C(=O)OC)cc1)c1cccc(NC(C)=O)c1 [S1.1] | > 2 mM | > 2 mM | > 500 µg/mL | > 500 µg/mL | > 500 µg/mL | – | – |
| Nc1ncc(-c2ccc(Br)cc2)s1 [F1.4] | – | > 2 mM | > 500 µg/mL | > 500 µg/mL | > 500 µg/mL | > 2 mM | – |
| CC(=O)Nc1cccc(OCOc2ccc([N+](=O)[O-])cc2)c1 [S1.16] | > 2 mM | > 2 mM | > 500 µg/mL | > 500 µg/mL | > 500 µg/mL | – | – |
| CCn1c2ccccc2c2cc(NC(C)=O)ccc21 [S1.24] | > 2 mM | > 2 mM | > 500 µg/mL | > 500 µg/mL | > 500 µg/mL | – | – |
| CC(C)(C)c1ccc(OCc2c[nH]cn2)cc1 [F1.10] | – | > 2 mM | > 500 µg/mL | > 500 µg/mL | > 500 µg/mL | > 2 mM | – |
| CC(=O)Nc1ccc[n+](CC(=O)c2ccc(F)cc2)c1 [S1.5] | > 2 mM | > 2 mM | > 500 µg/mL | > 500 µg/mL | > 500 µg/mL | – | – |
| Nc1nnc(-c2ccc(Br)cc2)o1 [F1.5] | – | > 2 mM | > 500 µg/mL | > 500 µg/mL | > 500 µg/mL | > 2 mM | – |
| CCc1ccc2[nH]c3ccccc3c2c1 [F2.9] | – | < 2 mM | > 500 µg/mL | > 500 µg/mL | > 500 µg/mL | > 2 mM | inhibition at 2000 µM ([2]; 2 mM, 30 sec, compared to negative control): > 50%; MBC ([3]; DSM20231, strain DSM 20231, read-out: MBC S. aureus DSM 20231): > 500 µg/mL |
| CCC(c1cccc(Br)c1)C(C(C)=O)c1ccc(OC)cc1 (centres unmarked) [S1.23] | > 2 mM | > 2 mM | > 500 µg/mL | > 500 µg/mL | > 500 µg/mL | – | – |
| CC(=O)Nc1ccc(C(O)c2ccc(NC(C)=O)cc2)cc1 [S1.6] | > 2 mM | > 2 mM | > 500 µg/mL | > 500 µg/mL | > 500 µg/mL | – | – |
| CC(=O)NC(Cc1ccccc1)C(=O)Nc1cccc(C)c1 (centres unmarked) [S1.19] | > 2 mM | > 2 mM | > 500 µg/mL | > 500 µg/mL | > 500 µg/mL | – | – |
| O=C(NCc1cccc(Cl)c1)Nc1ccccc1 [S1.22] | > 2 mM | > 2 mM | > 500 µg/mL | > 500 µg/mL | > 500 µg/mL | – | – |
| CC(=O)Nc1ccc2c(c1)C(=Nc1ccc(F)cc1)c1ccccc1-2 [S1.10] | > 2 mM | > 2 mM | > 500 µg/mL | > 500 µg/mL | > 500 µg/mL | – | – |
| c1ccc2[nH]ccc2c1 [F2.7] | – | – | – | – | – | – | IC50 ([2]; read-out: IC50 PhoR^E): > 2 mM; IC50 ([6]; read-out: IC50 WalK): > 2 mM; MBC ([3]; DSM20231, read-out: MBC S. aureus DSM 20231): > 500 µg/mL; MIC ([3]; DSM20231, read-out: MIC S. aureus DSM 20231): 500 µg/mL (≈ 4270 µM); MIC ([4]; DSM20044, read-out: MIC S. epidermidis DSM 20044): > 500 µg/mL; MIC [5]: 500 µg/mL (≈ 4270 µM) |
| Brc1ccc(C2=CSC3=NCCN23)cc1 [F1.7] | – | > 2 mM | > 500 µg/mL | > 500 µg/mL | > 500 µg/mL | > 2 mM | – |
| CC(=O)Nc1cccc(S(=O)(=O)c2cccc(NC(C)=O)c2)c1 [S1.9] | > 2 mM | > 2 mM | > 500 µg/mL | > 500 µg/mL | > 500 µg/mL | – | – |
| Cc1ccc(-c2csc(N)n2)cc1 [F1.3] | – | > 2 mM | > 500 µg/mL | 500 µg/mL (≈ 2630 µM) | > 500 µg/mL | > 2 mM | MBC ([4]; DSM20044, strain DSM 20044): 500 µg/mL (≈ 2630 µM) |
